Experiments:
R2-CCRF-CEM = assay: Growth inhibition of MTX-resistant subline R2-CCRF-CEM Human Leukemia Cell was determined; assay type: functional, cell-based
R30dm-CCRF-CEM = assay: Growth inhibition of MTX-resistant subline R30dm-CCRF-CEM Human Leukemia Cell was determined; assay type: functional, cell-based
R1-CCRF-CEM = assay: Growth inhibition of MTX-resistant subline R1-CCRF-CEM Human Leukemia Cell was determined; assay type: functional, cell-based
ACHN = assay: Cytotoxicity evaluation against ACHN renal cancer cells; assay type: functional; conditions: Homo sapiens
A549 = assay: Cytotoxicity evaluation against A549/ATCC non-small-cell lung cancer cells; assay type: functional; conditions: Homo sapiens
HCT-15 = assay: Cytotoxicity evaluation against HCT-15 colon cancer cells; assay type: functional; conditions: Homo sapiens
HL-60 = assay: Cytotoxicity evaluation against HL-60 Leukemia cells; assay type: functional; conditions: Homo sapiens
HT-29 = assay: Cytotoxicity evaluation against HT-29 colon cancer cells; assay type: functional; conditions: Homo sapiens
K562 = assay: Cytotoxicity evaluation against K-562 Leukemia cells; assay type: functional; conditions: Homo sapiens
MDA-N = assay: Cytotoxicity evaluation against […] breast cancer cells; assay type: functional; conditions: Homo sapiens
LOX IMVI = assay: Cytotoxicity evaluation against LOX IMVI melanoma cells; assay type: functional; conditions: Homo sapiens
MDA-MB-435 = assay: Cytotoxicity evaluation against MDA-MB-435 breast cancer cells; assay type: functional; conditions: Homo sapiens
MCF7 = assay: Cytotoxicity evaluation against MCF-7 breast cancer cells; assay type: functional; conditions: Homo sapiens
NCI-H226 = assay: Cytotoxicity evaluation against NCI-H226 non-small-cell lung cancer cells; assay type: functional; conditions: Homo sapiens
NCI-H460 = assay: Cytotoxicity evaluation against NCI-H460 non-small-cell lung cancer cells; assay type: functional; conditions: Homo sapiens
OVCAR-4 = assay: Cytotoxicity evaluation against OVCAR-4 cells; assay type: functional; conditions: Homo sapiens
SW-620 = assay: Cytotoxicity evaluation against SW-620 colon cancer cells; assay type: functional; conditions: Homo sapiens
SN12C = assay: Cytotoxicity evaluation against SN12C renal cancer cells; assay type: functional; conditions: Homo sapiens
SF-539 = assay: Cytotoxicity evaluation against SF-539 CNS cancer cells; assay type: functional; conditions: Homo sapiens
Thymidylate synthase [1] = target: Thymidylate synthase (Homo sapiens, UniProt P04818); assay: Compound was evaluated as inhibitor of human thymidylate synthase
Thymidylate synthase (Homo sapiens, UniProt P04818), sequence (P04818 whole entry): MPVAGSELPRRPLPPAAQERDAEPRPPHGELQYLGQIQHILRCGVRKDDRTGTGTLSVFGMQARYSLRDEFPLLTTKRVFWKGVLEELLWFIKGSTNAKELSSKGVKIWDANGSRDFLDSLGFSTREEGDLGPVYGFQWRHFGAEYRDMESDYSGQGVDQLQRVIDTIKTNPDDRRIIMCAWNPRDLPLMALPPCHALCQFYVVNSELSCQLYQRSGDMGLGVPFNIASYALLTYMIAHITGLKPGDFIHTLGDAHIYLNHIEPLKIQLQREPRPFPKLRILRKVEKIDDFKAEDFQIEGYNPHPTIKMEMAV

Thymidylate synthase [2] = target: Thymidylate synthase (Escherichia coli, UniProt C3SWJ7); assay: Compound was evaluated as inhibitor of Escherichia coli thymidylate synthase
Thymidylate synthase (Escherichia coli, UniProt C3SWJ7), sequence (C3SWJ7 whole entry): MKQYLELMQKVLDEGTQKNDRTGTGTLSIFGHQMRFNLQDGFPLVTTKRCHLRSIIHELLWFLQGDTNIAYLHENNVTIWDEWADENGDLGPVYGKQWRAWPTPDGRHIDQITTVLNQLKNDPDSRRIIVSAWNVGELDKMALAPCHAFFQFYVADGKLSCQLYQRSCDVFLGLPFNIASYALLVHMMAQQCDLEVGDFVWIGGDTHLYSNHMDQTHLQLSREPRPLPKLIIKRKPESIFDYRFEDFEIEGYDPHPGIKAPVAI

UACC-62 = assay: Cytotoxicity evaluation against UACC-62 melanoma cells; assay type: functional; conditions: Homo sapiens
UACC-257 = assay: Cytotoxicity evaluation against UACC-257 melanoma cells; assay type: functional; conditions: Homo sapiens
CCRF-CEM = assay: Growth inhibition of CCRF-CEM Human Leukemia Cell was determined; assay type: functional, cell-based
MOLT-4 = assay: Cytotoxicity evaluation against MOLT-4 Leukemia cells; assay type: functional; conditions: Homo sapiens
[3] = target: Dihydrofolate reductase (Homo sapiens) (UniProt P00374); assay: Compound was evaluated as inhibitor of human Dihydrofolate reductase; conditions: concentration not given here
Dihydrofolate reductase (Homo sapiens), sequence (P00374 whole entry): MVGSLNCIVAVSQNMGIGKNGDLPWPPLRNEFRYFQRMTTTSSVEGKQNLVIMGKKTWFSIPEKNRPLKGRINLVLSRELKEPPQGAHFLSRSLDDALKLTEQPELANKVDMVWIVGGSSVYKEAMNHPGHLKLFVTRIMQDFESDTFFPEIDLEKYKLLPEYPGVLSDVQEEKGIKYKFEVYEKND

Thymidylate synthase [4] = target: Thymidylate synthase (Lactobacillus casei, UniProt P00469); assay: Compound was evaluated as inhibitor of Lactobacillus casei thymidylate synthase; design: species or system Lacticaseibacillus casei
Thymidylate synthase (Lactobacillus casei, UniProt P00469), sequence (P00469 whole entry): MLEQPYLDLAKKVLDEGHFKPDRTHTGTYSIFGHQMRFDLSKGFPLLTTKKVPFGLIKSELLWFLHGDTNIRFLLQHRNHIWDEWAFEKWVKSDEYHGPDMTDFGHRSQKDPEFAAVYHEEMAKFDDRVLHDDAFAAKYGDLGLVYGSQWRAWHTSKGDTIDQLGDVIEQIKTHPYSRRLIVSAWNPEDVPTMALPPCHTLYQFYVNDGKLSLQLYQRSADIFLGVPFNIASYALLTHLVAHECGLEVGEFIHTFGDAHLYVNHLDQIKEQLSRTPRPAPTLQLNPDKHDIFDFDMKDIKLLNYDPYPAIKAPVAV

Dihydrofolate reductase = Dihydrofolate reductase (Homo sapiens, UniProt P00374)
Dihydrofolate reductase, sequence (P00374 whole entry): as the sequence (P00374 whole entry) above

[5] = substrate: CCc1[nH]c(N)nc2nc(C)c(CCc3ccc(C(=O)N[C@@H](CCC(=O)O)C(=O)O)cc3)c1-2; assay: (§1) Activity of compound calculated as Km was tested as substrate for human Folyl-polyglutamate synthase
[6] = substrate: CCc1[nH]c(N)nc2ncc(CCc3ccc(C(=O)N[C@@H](CCC(=O)O)C(=O)O)cc3)c1-2; assay: as §1
[7] = substrate: CCc1[nH]c(N)nc2nc(C)c(CCc3ccc(C(=O)N[C@@H](CCC(=O)O)C(=O)O)cc3)c1-2; assay: (§2) Activity of compound calculated as maximum activity of substrate for human Folyl-polyglutamate synthase relative to the maximum activity for aminopterin
[8] = substrate: CCc1[nH]c(N)nc2ncc(CCc3ccc(C(=O)N[C@@H](CCC(=O)O)C(=O)O)cc3)c1-2; assay: as §2
[9] = substrate: Cc1nc(N)nc2[nH]cc(CCc3ccc(C(=O)N[C@@H](CCC(=O)O)C(=O)O)cc3)c12; assay: as §2
[10] = substrate: Nc1nc(N)c2nc(CNc3ccc(C(=O)N[C@@H](CCC(=O)O)C(=O)O)cc3)cnc2n1; assay: as §2

Row | Molecule | EC50 (R2-CCRF-CEM) [nM] | EC50 (R30dm-CCRF-CEM) [nM] | EC50 (R1-CCRF-CEM) [nM] | GI50 (ACHN) [nM] | GI50 (A549) [nM] | GI50 (HCT-15) [nM] | GI50 (HL-60) [nM] | GI50 (HT-29) [nM] | GI50 (K562) [nM] | GI50 (MDA-N) [nM] | GI50 (LOX IMVI) [nM] | GI50 (MDA-MB-435) [nM] | GI50 (MCF7) [nM] | GI50 (NCI-H226) [nM] | GI50 (NCI-H460) [nM] | GI50 (OVCAR-4) [nM] | GI50 (SW-620) [nM] | GI50 (SN12C) [nM] | GI50 (UACC-62) [nM] | GI50 (UACC-257) [nM] | other results
1 | CN(Cc1cnc2nc(N)nc(N)c2n1)c1ccc(C(=O)N[C@@H](CCC(=O)O)C(=O)O)cc1 [METHOTREXATE] | 2630 | 12.8 | 985 |  |  |  |  |  |  |  |  |  |  |  |  |  |  |  |  |  | 
2 | CCc1nc(N)nc2[nH]cc(CCc3ccc(C(=O)N[C@@H](CCC(=O)O)C(=O)O)cc3)c12 | 750 | 18.5 | 695 | 169 | < 10 | < 10 | < 10 | < 10 | < 10 | < 10 | < 10 | < 10 | < 10 | < 10 | < 10 | < 10 | < 10 | < 10 | < 10 | < 10 | GI50 (SF-539): < 10 nM; IC50 (Thymidylate synthase [1]): 80000 nM; IC50 (Thymidylate synthase [2]): 80000 nM; EC50 (CCRF-CEM): 15 nM; GI50 (MOLT-4): > 100000 nM
3 | CCc1[nH]c(N)nc2nc(C)c(CCc3ccc(C(=O)N[C@@H](CCC(=O)O)C(=O)O)cc3)c1-2 | > 10000 | > 20000 | > 20000 | > 100000 | > 100000 | > 100000 | < 10 | > 100000 | 143 | > 100000 | 98600 | > 100000 | > 100000 | > 100000 | > 100000 | > 100000 | > 100000 | > 100000 | > 100000 | > 100000 | inhibition [3]: 14%; GI50 (SF-539): > 100000 nM; IC50 (Thymidylate synthase [1]): 9000 nM; IC50 (Thymidylate synthase [4]): > 100000 nM; EC50 (CCRF-CEM): > 10000 nM; GI50 (MOLT-4): 100 nM
4 | Cc1nc(N)nc2[nH]cc(CCc3ccc(C(=O)N[C@@H](CCC(=O)O)C(=O)O)cc3)c12 | 575 | 18.5 | 158 |  |  | > 100000 | < 10 | > 100000 | 14700 | > 100000 | 11500 | > 100000 |  |  |  | > 100000 | > 100000 | > 100000 | > 100000 | > 100000 | IC50 (Dihydrofolate reductase): 1200 nM
5 | Folylpolyglutamate synthase, mitochondrial (Homo sapiens), Q05932 (protein) MSRARSHLRAALFLAAASARGITTQVAARRGLSAWPVPQEPSMEYQDAVRMLNTLQTNAGYLEQVKRQRGDPQTQLEAMELYLARSGLQVEDLDRLNIIHVTGTKGKGSTCAFTECILRSYGLKTGFFSSPHLVQVRERIRINGQPISPELFTKYFWRLYHRLEETKDGSCVSMPPYFRFLTLMAFHVFLQEKVDLAVVEVGIGGAYDCTNIIRKPVVCGVSSLGIDHTSLLGDTVEKIAWQKGGIFKQGVPAFTVLQPEGPLAVLRDRAQQISCPLYLCPMLEALEEGGPPLTLGLEGEHQRSNAALALQLAHCWLQRQDRHGAGEPKASRPGLLWQLPLAPVFQPTSHMRLGLRNTEWPGRTQVLRRGPLTWYLDGAHTASSAQACVRWFRQALQGRERPSGGPEVRVLLFNATGDRDPAALLKLLQPCQFDYAVFCPNLTEVSSTGNADQQNFTVTLDQVLLRCLEHQQHWNHLDEEQASPDLWSAPSPEPGGSASLLLAPHPPHTCSASSLVFSCISHALQWISQGRDPIFQPPSPPKGLLTHPVAHSGASILREAAAIHVLVTGSLHLVGGVLKLLEPALSQ |  |  |  |  |  |  |  |  |  |  |  |  |  |  |  |  |  |  |  |  | Km [5]: 96 µM; Km [6]: < 2 µM; relative Vmax [7]: 0.1; relative Vmax [8]: 0.23; relative Vmax [9]: 0.17; Vmax [10]: 1 µM

Reference: ChEMBL document CHEMBL1145967, “Design, synthesis, and biological activities of classical N-[4-[2-(2-amino-4-ethylpyrrolo[2,3-d]pyrimidin-5-yl)ethyl]benzoyl]-l-glutamic acid and its 6-methyl derivative as potential dual inhibitors of thymidylate synthase and dihydrofolate reductase and as potential antitumor agents” (J Med Chem, 2003)
